Data: patent publication US10851067B2, “Kv7 channel activators compositions and methods of use” (Knopp Biosciences LLC, priority 2018, dated 2020)

Experiments:
Kv7.2/7.3 [1] = biological target: T1, Kv7.2/7.3 (Homo sapiens, UniProt O43525+O43526); experiment: Kv7.2/7.3 FluxOR Potassium Ion Channel Assay (Invitrogen, F20015); type: cell-based
Kv7.2/7.3 [2] = biological target: T1, Kv7.2/7.3; experiment: Kv7.2/7.3 Thallium Flux Assay; type: cell-based; set-up: host or cells: HEK cells, tetracycline-inducible expression; conditions: read-out: Kv7.2/7.3 Activity: EC50 of Kv7.2/Kv7.3 activation
Outline: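 Tetracycline-induced (10 ng/mL) hKv7.2/7.3 cell line tested over eight concentrations, 0.014–30 μM, in 0.1% DMSO extracellular solution; FluxOR II thallium-sensitive dye read at Ex 475/Em 530 nm. After 15 sec baseline, thallium/potassium stimulus injected, endpoint at 90 sec; responses normalized to retigabine ([…] max), Hill fit gave EC50 and maximal response.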

CCOC(=O)Nc1ccc(NCc2ccc(F)cc2)cc1N [ezogabine]
EC50 (Kv7.2/7.3 [1]): 1100 nM

CC(C)(CC(=O)Nc1nc2cc(F)c(F)cc2n1C1(C)CCC1)C(F)F [Example 533, N-(5,6-difluoro-1-(1-methylcyclobutyl)-1H-benzo[d]imidazol-2-yl)-4,4-difluoro-3,3-dimethylbutanamide]
EC50 (Kv7.2/7.3 [2]): < 1000 nM

CC(C)(C)n1c(NC(=O)CC2CC(F)(F)C2(F)F)nc2cc(F)ccc21 (single isomer, unassigned) [Example 528, N-(1-(tert-butyl)-5-fluoro-1H-benzo[d]imidazol-2-yl)-2-(2,2,3,3-tetrafluorocyclobutyl)acetamide]
EC50 (Kv7.2/7.3 [2]): < 1000 nM

CC(C)(O)c1ccc2nc(NC(=O)CC3CC(F)(F)C3(F)F)n(C3(C)CCC3)c2c1 (centres unmarked) [Example 491, N-(6-(2-hydroxypropan-2-yl)-1-(1-methylcyclobutyl)-1H-benzo[d]imidazol-2-yl)-2-(2,2,3,3-tetrafluorocyclobutyl)acetamide]
EC50 (Kv7.2/7.3 [2]): < 1000 nM

CC1(n2c(NC(=O)CC3CC(F)(F)C3(F)F)nc3c(F)cc(C#N)c(F)c32)CCC1 (single isomer, unassigned) [Example 542, N-(6-cyano-4,7-difluoro-1-(1-methylcyclobutyl)-1H-benzo[d]imidazol-2-yl)-2-(2,2,3,3-tetrafluorocyclobutyl)acetamide]
EC50 (Kv7.2/7.3 [2]): < 1000 nM

CC(C(=O)Nc1nc2c(F)cc(C#N)c(F)c2n1C1(C)CCC1)C1(C(F)(F)F)CC1 (single isomer, unassigned) [Example 543, N-(6-cyano-4,7-difluoro-1-(1-methylcyclobutyl)-1H-benzo[d]imidazol-2-yl)-2-(1-(trifluoromethyl)cyclopropyl)propanamide]
EC50 (Kv7.2/7.3 [2]): < 1000 nM

CC1(n2c(NC(=O)CC3CC(F)(F)C3(F)F)nc3cc(F)cc(F)c32)CCC1 (single isomer, unassigned) [Example 523, N-(5,7-difluoro-1-(1-methylcyclobutyl)-1H-benzo[d]imidazol-2-yl)-2-(2,2,3,3-tetrafluorocyclobutyl)acetamide]
EC50 (Kv7.2/7.3 [2]): < 1000 nM

CC1(n2c(NC(=O)CC(C)(C)C(F)(F)F)nc3ccc(Cl)c(F)c32)CCC1 [Example 555, N-(6-chloro-7-fluoro-1-(1-methylcyclobutyl)-1H-benzo[d]imidazol-2-yl)-4,4,4-trifluoro-3,3-dimethylbutanamide]
EC50 (Kv7.2/7.3 [2]): < 1000 nM

CC1(n2c(NC(=O)CC3CC(F)(F)C3(F)F)nc3ccc(F)c(Br)c32)CCC1 (single isomer, unassigned) [Example 549, N-(7-bromo-6-fluoro-1-(1-methylcyclobutyl)-1H-benzo[d]imidazol-2-yl)-2-(2,2,3,3-tetrafluorocyclobutyl)acetamide]
EC50 (Kv7.2/7.3 [2]): < 1000 nM

CC(C(=O)Nc1nc2c(F)cc(C#N)cc2n1C1(C)CCC1)C(C)(C)C(F)(F)F (single isomer, unassigned) [Example 562, N-(6-cyano-4-fluoro-1-(1-methylcyclobutyl)-1H-benzo[d]imidazol-2-yl)-4,4,4-trifluoro-2,3,3-trimethylbutanamide]
EC50 (Kv7.2/7.3 [2]): < 1000 nM

CC(C)(C)CC(=O)Nc1nc2ccc(C(C)(C)O)c(OC(F)(F)F)c2n1C1CCC1 [Example 501, N-(1-cyclobutyl-6-(2-hydroxypropan-2-yl)-7-(trifluoromethoxy)-1H-benzo[d]imidazol-2-yl)-3,3-dimethylbutanamide]
EC50 (Kv7.2/7.3 [2]): 1000 to 3000 nM

[2H]C([2H])([2H])C(CC(=O)Nc1nc2c(F)cc(C#N)cc2n1C1(C)CCC1)(C([2H])([2H])[2H])C([2H])([2H])[2H] [Example 521, N-(6-cyano-4-fluoro-1-(1-methylcyclobutyl)-1H-benzo[d]imidazol-2-yl)-3,3-bis(methyl-d3)butanamide]
EC50 (Kv7.2/7.3 [2]): < 1000 nM

COc1cc(C#N)cc2c1nc(NC(=O)CC(C)(C)C(F)(F)F)n2C1(C)CCC1 [Example 554]
EC50 (Kv7.2/7.3 [2]): < 1000 nM

CC(C)(C)CC(=O)Nc1nc2ccc(C#N)c(OC(F)(F)F)c2n1C1CCC1 [Example 498, N-(6-cyano-1-cyclobutyl-7-(trifluoromethoxy)-1H-benzo[d]imidazol-2-yl)-3,3-dimethylbutanamide]
EC50 (Kv7.2/7.3 [2]): < 1000 nM
